Results: patent publication US9650395B2, “Antibacterial compounds and methods for use” (PTC Therapeutics, Inc., priority 2011, dated 2017)
Values after ≈ are worked out from the molar mass of the structure shown.

Columns and labels:
[1] = test system: control Gram-negative E. coli 25922 strain; test: Antibacterial activity, microbroth dilution MIC, E. coli 25922; format: cell-based, Escherichia coli; conditions: Escherichia coli; E. coli 25922, microbroth dilution; read-out: MIC, 25922
[2] = test system: Acinetobacter baumannii (A. baumannii) BAA747; test: Antibacterial activity, MIC, A. baumannii BAA747; format: cell-based; conditions: Acinetobacter baumannii; A. baumannii BAA747; read-out: MIC BAA747
[3] = test system: quinolone resistant E. coli LZ3111; test: Antibacterial activity, MIC, quinolone resistant E. coli LZ3111; format: cell-based, Escherichia coli; conditions: Escherichia coli, read-out: MIC, LZ3111
From the text: (§1) The antibacterial activity from a microbroth dilution method may be presented as the minimum inhibitory concentration (MIC in […]). The MIC value is the lowest concentration of a drug which prevents macroscopically visible bacterial growth under test conditions.
Mutations in these regions are known to confer a high level resistance to the quinolone class of antibiotics.

[4] = test system: resistant A. baumannii MXX2240 (MDR clinical isolate); test: Antibacterial activity, MIC, resistant A. baumannii MXX2240; format: cell-based, Acinetobacter baumannii; conditions: Acinetobacter baumannii, resistant A. baumannii MMX2240, MDR clinical isolate; read-out: MIC MMX2240
[5] = test system: Pseudomonas aeruginosa (P. aeruginosa) 27853; test: Antibacterial activity, MIC, P. aeruginosa 27853; format: cell-based; conditions: Pseudomonas aeruginosa, P. aeruginosa 27853; read-out: MIC 27853
From the text: as §1
Antibacterial activity of test compounds against the Gram-negative bacterium Pseudomonas aeruginosa (P. aeruginosa) 27853 is shown in Table 5.

[6] = test system: super sensitive Gram-negative Escherichia coli (E. coli) BAS849; test: Antibacterial activity, microbroth dilution MIC, E. coli BAS849; format: cell-based; conditions: Escherichia coli; E. coli BAS849, microbroth dilution; read-out: MIC, BAS849
[7] = test system: resistant K. pneumoniae MXX1232 (MDR clinical isolate); test: Antibacterial activity, MIC, resistant K. pneumoniae MXX1232; format: cell-based, Klebsiella pneumoniae; conditions: Klebsiella pneumoniae; resistant K. pneumoniae MMX1232, MDR clinical isolate; read-out: MIC MMX1232
[8] = test system: Klebsiella pneumoniae (K. pneumoniae) 35657; test: Antibacterial activity, MIC, K. pneumoniae 35657; format: cell-based; conditions: Klebsiella pneumoniae
[9] = test system: Gram-positive Staphylococcus aureus (S. aureus) 29213; test: Antibacterial activity, microbroth dilution MIC, S. aureus 29213; format: cell-based; conditions: Staphylococcus aureus; S. aureus 29213, microbroth dilution; read-out: MIC, 29213

CCc1c(-c2ccc(N3CCC4(CCN(C)C4)C3)cc2)[nH]c(=O)c(C(=O)O)c1O (stereo not drawn) [Cpd 322, 5-ethyl-4-hydroxy-6-(4-(7-methyl-2,7-diazaspiro[4.4]nonan-2-yl)phenyl)-2-oxo-1,2-dihydropyridine-3-carboxylic acid]
MIC [1]: < 1 µg/mL
MIC [2]: 1 to 3.5 µg/mL (≈ 2.52 to 8.81 µM)
MIC [3]: 12.5 to 150 µg/mL (≈ 31.4 to 377 µM)
MIC [4]: 12.5 to 150 µg/mL (≈ 31.4 to 377 µM)
MIC [5]: 3.5 to 12.5 µg/mL (≈ 8.81 to 31.4 µM)
MIC [6]: < 1 µg/mL
MIC [7]: 12.5 to 150 µg/mL (≈ 31.4 to 377 µM)
MIC [8]: 1 to 3.5 µg/mL (≈ 2.52 to 8.81 µM)
MIC [9]: 3.5 to 12.5 µg/mL (≈ 8.81 to 31.4 µM)

C/C=C/c1c(-c2ccc(N(C)C)cc2)[nH]c(=O)c(C(=O)O)c1O [Cpd 330, (E)-6-(4-(dimethylamino)phenyl)-4-hydroxy-2-oxo-5-(prop-1-enyl)-1,2-dihydropyridine-3-carboxylic acid]
MIC [1]: 12.5 to 150 µg/mL (≈ 39.8 to 477 µM)
MIC [2]: 12.5 to 150 µg/mL (≈ 39.8 to 477 µM)
MIC [3]: 12.5 to 150 µg/mL (≈ 39.8 to 477 µM)
MIC [4]: 12.5 to 150 µg/mL (≈ 39.8 to 477 µM)
MIC [5]: 12.5 to 150 µg/mL (≈ 39.8 to 477 µM)
MIC [6]: 1 to 3.5 µg/mL (≈ 3.18 to 11.1 µM)
MIC [7]: 12.5 to 150 µg/mL (≈ 39.8 to 477 µM)
MIC [8]: 12.5 to 150 µg/mL (≈ 39.8 to 477 µM)
MIC [9]: 12.5 to 150 µg/mL (≈ 39.8 to 477 µM)

Cc1c(-c2ccc(N3C[C@@H]4[C@@H](N)[C@@H]4C3)cn2)[nH]c(=O)c(C(=O)O)c1O [Cpd 317, 6-(5-((1R,5S,6s)-6-amino-3-azabicyclo[3.1.0]hexan-3-yl)pyridin-2-yl)-4-hydroxy-5-methyl-2-oxo-1,2-dihydropyridine-3-carboxylic acid]
MIC [1]: 3.5 to 12.5 µg/mL (≈ 10.2 to 36.5 µM)
MIC [2]: 12.5 to 150 µg/mL (≈ 36.5 to 438 µM)
MIC [3]: 12.5 to 150 µg/mL (≈ 36.5 to 438 µM)
MIC [4]: 12.5 to 150 µg/mL (≈ 36.5 to 438 µM)
MIC [5]: 12.5 to 150 µg/mL (≈ 36.5 to 438 µM)
MIC [6]: 3.5 to 12.5 µg/mL (≈ 10.2 to 36.5 µM)
MIC [7]: 12.5 to 150 µg/mL (≈ 36.5 to 438 µM)
MIC [8]: 3.5 to 12.5 µg/mL (≈ 10.2 to 36.5 µM)
MIC [9]: 12.5 to 150 µg/mL (≈ 36.5 to 438 µM)

CCc1c(-c2cnc(N(C)C)nc2)[nH]c(=O)c(C(=O)O)c1O [Cpd 20, 6-[2-(dimethylamino)pyrimidin-5-yl]-5-ethyl-4-hydroxy-2-oxo-1,2-dihydropyridine-3-carboxylic acid]
MIC [1]: 12.5 to 150 µg/mL (≈ 41.1 to 493 µM)
MIC [2]: 12.5 to 150 µg/mL (≈ 41.1 to 493 µM)
MIC [3]: 3.5 to 12.5 µg/mL (≈ 11.5 to 41.1 µM)
MIC [4]: 3.5 to 12.5 µg/mL (≈ 11.5 to 41.1 µM)
MIC [5]: 12.5 to 150 µg/mL (≈ 41.1 to 493 µM)
MIC [6]: 12.5 to 150 µg/mL (≈ 41.1 to 493 µM)
MIC [7]: 12.5 to 150 µg/mL (≈ 41.1 to 493 µM)
MIC [8]: 12.5 to 150 µg/mL (≈ 41.1 to 493 µM)
MIC [9]: 12.5 to 150 µg/mL (≈ 41.1 to 493 µM)

CCc1c(-c2ccc(N3CC4(CCCN4)C3)cc2)[nH]c(=O)c(C(=O)O)c1O [Cpd 323, 6-(4-(2,5-diazaspiro[3.4]octan-2-yl)phenyl)-5-ethyl-4-hydroxy-2-oxo-1,2-dihydropyridine-3-carboxylic acid]
MIC [1]: 3.5 to 12.5 µg/mL (≈ 9.47 to 33.8 µM)
MIC [2]: 12.5 to 150 µg/mL (≈ 33.8 to 406 µM)
MIC [3]: 3.5 to 12.5 µg/mL (≈ 9.47 to 33.8 µM)
MIC [4]: 12.5 to 150 µg/mL (≈ 33.8 to 406 µM)
MIC [5]: 12.5 to 150 µg/mL (≈ 33.8 to 406 µM)
MIC [6]: 1 to 3.5 µg/mL (≈ 2.71 to 9.47 µM)
MIC [7]: 12.5 to 150 µg/mL (≈ 33.8 to 406 µM)
MIC [8]: 12.5 to 150 µg/mL (≈ 33.8 to 406 µM)
MIC [9]: 12.5 to 150 µg/mL (≈ 33.8 to 406 µM)

CCc1c(-c2ccc(O)cc2)[nH]c(=O)c(C(=O)O)c1O [Cpd 334, 5-ethyl-4-hydroxy-6-(4-hydroxyphenyl)-2-oxo-1,2-dihydropyridine-3-carboxylic acid]
MIC [1]: 12.5 to 150 µg/mL (≈ 45.4 to 545 µM)
MIC [2]: 12.5 to 150 µg/mL (≈ 45.4 to 545 µM)
MIC [3]: 12.5 to 150 µg/mL (≈ 45.4 to 545 µM)
MIC [4]: 12.5 to 150 µg/mL (≈ 45.4 to 545 µM)
MIC [5]: 12.5 to 150 µg/mL (≈ 45.4 to 545 µM)
MIC [6]: 3.5 to 12.5 µg/mL (≈ 12.7 to 45.4 µM)
MIC [7]: 12.5 to 150 µg/mL (≈ 45.4 to 545 µM)
MIC [8]: 12.5 to 150 µg/mL (≈ 45.4 to 545 µM)
MIC [9]: 12.5 to 150 µg/mL (≈ 45.4 to 545 µM)

CCc1c(-c2ccc(NC)cc2)[nH]c(=O)c(C(=O)O)c1O [Cpd 326, 5-ethyl-4-hydroxy-6-(4-(methylamino)phenyl)-2-oxo-1,2-dihydropyridine-3-carboxylic acid]
MIC [1]: 3.5 to 12.5 µg/mL (≈ 12.1 to 43.4 µM)
MIC [2]: 1 to 3.5 µg/mL (≈ 3.47 to 12.1 µM)
MIC [3]: 12.5 to 150 µg/mL (≈ 43.4 to 520 µM)
MIC [4]: 3.5 to 12.5 µg/mL (≈ 12.1 to 43.4 µM)
MIC [5]: 12.5 to 150 µg/mL (≈ 43.4 to 520 µM)
MIC [6]: < 1 µg/mL
MIC [7]: 12.5 to 150 µg/mL (≈ 43.4 to 520 µM)
MIC [8]: 3.5 to 12.5 µg/mL (≈ 12.1 to 43.4 µM)
MIC [9]: 12.5 to 150 µg/mL (≈ 43.4 to 520 µM)

CCc1cc(C(=O)O)c(=O)[nH]c1-c1ccc(N2CCC(c3ccccn3)C2)cc1 (stereo not drawn) [Cpd 227, 5-ethyl-2-oxo-6-{4-[3-(pyridin-2-yl)pyrrolidin-1-yl]phenyl}-1,2-dihydropyridine-3-carboxylic acid]
MIC [1]: 1 to 3.5 µg/mL (≈ 2.57 to 8.99 µM)
MIC [2]: 1 to 3.5 µg/mL (≈ 2.57 to 8.99 µM)
MIC [3]: 12.5 to 150 µg/mL (≈ 32.1 to 385 µM)
MIC [4]: 12.5 to 150 µg/mL (≈ 32.1 to 385 µM)
MIC [5]: 3.5 to 12.5 µg/mL (≈ 8.99 to 32.1 µM)
MIC [6]: < 1 µg/mL
MIC [7]: 12.5 to 150 µg/mL (≈ 32.1 to 385 µM)
MIC [8]: 3.5 to 12.5 µg/mL (≈ 8.99 to 32.1 µM)
MIC [9]: 1 to 3.5 µg/mL (≈ 2.57 to 8.99 µM)

CCc1c(-c2ccc(N3CCCC3)nc2)[nH]c(=O)c(C(=O)O)c1O [Cpd 336, 5-ethyl-4-hydroxy-2-oxo-6-(6-(pyrrolidin-1-yl)pyridin-3-yl)-1,2-dihydropyridine-3-carboxylic acid]
MIC [1]: 12.5 to 150 µg/mL (≈ 38 to 455 µM)
MIC [2]: 12.5 to 150 µg/mL (≈ 38 to 455 µM)
MIC [3]: 3.5 to 12.5 µg/mL (≈ 10.6 to 38 µM)
MIC [4]: 12.5 to 150 µg/mL (≈ 38 to 455 µM)
MIC [5]: 12.5 to 150 µg/mL (≈ 38 to 455 µM)
MIC [6]: 1 to 3.5 µg/mL (≈ 3.04 to 10.6 µM)
MIC [7]: 12.5 to 150 µg/mL (≈ 38 to 455 µM)
MIC [8]: 12.5 to 150 µg/mL (≈ 38 to 455 µM)
MIC [9]: 12.5 to 150 µg/mL (≈ 38 to 455 µM)
